system: rabbit skeletal myofibrils (approximately 90% fast fibers); assay: Activation of fast skeletal myofibrils (PUMA coupled-enzyme ATPase assay); assay type: biochemical; details: concentration at which the compound increased the enzymatic activity by 40%; calcium at pCa25; PM12 buffer pH 6.8
Method: Preparation of fast skeletal myofibrils: Rabbit skeletal myofibrils were prepared based upon the method of Herrmann et al. (Biochem. 32 (28): 7255-7263 (1993). Myofibrils were prepared from rabbit psoas muscle purchased from Pel-Freez Biologicals (Arkansas) within 2 days of ordering, stored on ice. Minced muscle was homogenized in 10 volumes of ice-cold “standard” buffer (50 mM Tris, pH 7.4, 0.1 M KOAc, 5 mM KCl, 2 mM dithiothreitol (DTT), 0.2 mM phenylmethylsulfonyl fluoride (PMSF), 10 μM leupeptin, 5 μM pepstatin, and 0.5 mM sodium azide) containing 5 mM ethylenediaminetetraacetic acid (EDTA) and 0.5% Triton X-100 using an Omni-Macro homogenizer. Myofibrils were recovered by low speed centrifugation (3000 rpm for 10 minutes) and washed 2 times in the Triton X-100 containing buffer to ensure removal of cellular membrane. Following the Triton washes, myofibrils were washed 3 times in “standard” buffer containing 2 mM magnesium acetate. A final wash in assay buffer (12 mM piperazine-1,4-bis(2-ethanesulfonic acid) (PIPES), pH 6.8, 60 mM KCl, 1 mM DTT) was performed and brought to 10% sucrose for flash freezing in liquid nitrogen and storage at −80° C.
Activation of Fast Skeletal Myofibrils: Fast fiber activators were identified by measuring the enzymatic activity of muscle myofibril preparations using the proprietary PUMA (trademark) (see, e.g., U.S. Pat. Nos. 6,410,254, 6,743,599, 7,202,051, and 7,378,254) assay system. Myofibril preparations consisted of rabbit skeletal muscle (approximately 90% fast fibers) that had been mechanically homogenized and washed with a detergent (Triton X-100) to remove cellular membranes. This preparation retained all of the sarcomeric components in a native conformation and the enzymatic activity was still regulated by calcium. Compounds were tested using a myofibril suspension and a level of calcium sufficient to increase enzymatic activity of the myofibrils to 25% of their maximal rate (termed pCa25). Enzymatic activity was tracked via a pyruvate kinase and lactate dehydrogenase-coupled enzyme system. This assay regenerates myosin-produced ADP into ATP by oxidizing NADH, producing an absorbance change at 340 nm. The buffering system was 12 mM PIPES, 2 mM MgCl2, 1 mM DTT at pH 6.8 (PM12 buffer). […] In Table 3, “Example Compound” refers to the compound labeled with the same number in Table 2.

In order of falling AC1.4:
1. CCC[C@H]1C(=O)Nc2ccccc2N1C(=O)c1cncc(F)c1 [Compound 18, (S)-4-(5-fluoronicotinoyl)-3-propyl-3,4-dihydroquinoxalin-2(1H)-one]  2.97 µM
2. CCC[C@H]1C(=O)Nc2ccccc2N1C(=O)c1ccc(NC(C)=O)nc1 [Compound 22, (S)-N-(5-(3-oxo-2-propyl-1,2,3,4-tetrahydroquinoxaline-1-carbonyl)pyridin-2-yl)acetamide]  2.76 µM
3. CCC[C@H]1C(=O)Nc2ccccc2N1C(=O)Nc1ccc(C)nc1 [Compound 8, (S)-N-(6-methylpyridin-3-yl)-3-oxo-2-propyl-3,4-dihydroquinoxaline-1(2H)-carboxamide]  2.73 µM
4. CCC[C@H]1C(=O)Nc2ccccc2N1C(=O)c1ccc(N2CCCCC2)nc1 [Compound 29, (S)-4-(6-(piperidin-1-yl)nicotinoyl)-3-propyl-3,4-dihydroquinoxalin-2(1H)-one]  2.7 µM
5. CCC[C@H]1C(=O)Nc2ccccc2N1C(=O)c1ccc(NCC(F)(F)F)nc1 [Compound 34, (S)-3-propyl-4-(6-((2,2,2-trifluoroethyl)amino)nicotinoyl)-3,4-dihydroquinoxalin-2(1H)-one]  2.59 µM
6. CCC[C@H]1C(=O)Nc2ccccc2N1C(=O)c1ccc(OC(F)(F)F)nc1 [Compound 25, (S)-3-propyl-4-(6-(trifluoromethoxy)nicotinoyl)-3,4-dihydroquinoxalin-2(1H)-one]  2.34 µM
7. CCC[C@H]1C(=O)Nc2ccccc2N1C(=O)c1ccc(F)nc1 [Compound 6, (S)-4-(6-fluoronicotinoyl)-3-propyl-3,4-dihydroquinoxalin-2(1H)-one]  2.19 µM
8. CCC[C@H]1C(=O)Nc2ccccc2N1C(=O)c1conc1C [Compound 14, (S)-4-(3-methylisoxazole-4-carbonyl)-3-propyl-3,4-dihydroquinoxalin-2(1H)-one]  1.66 µM
9. CCC[C@H]1C(=O)Nc2ccccc2N1C(=O)c1ccc(N2CC(F)C2)nc1 [Compound 38, (S)-4-(6-(3-fluoroazetidin-1-yl)nicotinoyl)-3-propyl-3,4-dihydroquinoxalin-2(1H)-one]  1.58 µM
10. CCC[C@H]1C(=O)Nc2ccccc2N1C(=O)c1cccnc1 [Compound 12, (S)-4-nicotinoyl-3-propyl-3,4-dihydroquinoxalin-2(1H)-one]  1.55 µM
11. CCC[C@H]1C(=O)Nc2ccccc2N1C(=O)c1cncc(Cl)c1 [Compound 20, (S)-4-(5-chloronicotinoyl)-3-propyl-3,4-dihydroquinoxalin-2(1H)-one]  1.52 µM
12. CCC[C@H]1C(=O)Nc2ccccc2N1C(=O)CCc1ccccc1 [Compound 19, (S)-4-(3-phenylpropanoyl)-3-propyl-3,4-dihydroquinoxalin-2(1H)-one]  1.46 µM
13. CCC[C@H]1C(=O)Nc2ccccc2N1C(=O)c1ccc(N(C)C)nc1 [Compound 28, (S)-4-(6-(dimethylamino)nicotinoyl)-3-propyl-3,4-dihydroquinoxalin-2(1H)-one]  1.42 µM
14. CCC[C@H]1C(=O)Nc2ccccc2N1C(=O)c1cncc(C)c1 [Compound 16, (S)-4-(5-methylnicotinoyl)-3-propyl-3,4-dihydroquinoxalin-2(1H)-one]  1.41 µM
15. CCC[C@H]1C(=O)Nc2ccccc2N1C(=O)c1ccc(-n2cccc2)nc1 [Compound 23, (S)-4-(6-(1H-pyrrol-1-yl)nicotinoyl)-3-propyl-3,4-dihydroquinoxalin-2(1H)-one]  1.33 µM
16. CCC[C@H]1C(=O)Nc2ccccc2N1C(=O)c1ccc(N2CCCCCC2)nc1 [Compound 35, (S)-4-(6-(azepan-1-yl)nicotinoyl)-3-propyl-3,4-dihydroquinoxalin-2(1H)-one]  1.32 µM
17. CCC[C@H]1C(=O)Nc2ccccc2N1C(=O)c1ccncc1 [Compound 11, (S)-4-isonicotinoyl-3-propyl-3,4-dihydroquinoxalin-2(1H)-one]  0.97 µM
18. CCC[C@H]1C(=O)Nc2cccc(C3CC3)c2N1C(=O)c1ccc(C)nc1 [Compound 7, (S)-5-Cyclopropyl-4-(6-methylnicotinoyl)-3-propyl-3,4-dihydroquinoxalin-2(1H)-one]  0.96 µM
19. CCC[C@H]1C(=O)Nc2ccccc2N1C(=O)c1ccc(N(C)CC)nc1 [Compound 33, (S)-4-(6-(ethyl(methyl)amino)nicotinoyl)-3-propyl-3,4-dihydroquinoxalin-2(1H)-one]  0.95 µM
20. CCC[C@H]1C(=O)Nc2ccccc2N1C(=O)c1ccc(C)nc1 [Compound 3, (S)-4-(6-methylnicotinoyl)-3-propyl-3,4-dihydroquinoxalin-2(1H)-one]  0.77 µM
21. CCC[C@H]1C(=O)Nc2ccccc2N1C(=O)c1ccc(N)nc1 [Compound 27, (S)-4-(6-aminonicotinoyl)-3-propyl-3,4-dihydroquinoxalin-2(1H)-one]  0.76 µM
22. CCC[C@H]1C(=O)Nc2ccccc2N1C(=O)c1ccc[nH]1 [Compound 9, (S)-3-propyl-4-(1H-pyrrole-2-carbonyl)-3,4-dihydroquinoxalin-2(1H)-one]  0.74 µM
23. CCC[C@H]1C(=O)Nc2cccc(Br)c2N1C(=O)c1ccc(Cl)nc1 [Compound 4, (S)-5-bromo-4-(6-chloronicotinoyl)-3-propyl-3,4-dihydroquinoxalin-2(1H)-one]  0.72 µM
24. CCC[C@H]1C(=O)Nc2ccc(Cl)cc2N1C(=O)c1ccc(Cl)nc1 [Compound 2, (S)-6-chloro-4-(6-chloronicotinoyl)-3-propyl-3,4-dihydroquinoxalin-2(1H)-one]  0.71 µM
25. CCC[C@H]1C(=O)Nc2ccccc2N1C(=O)c1cnn(C2CCC2)c1 [Compound 32, (S)-4-(1-cyclobutyl-1H-pyrazole-4-carbonyl)-3-propyl-3,4-dihydroquinoxalin-2(1H)-one]  0.71 µM
26. CCC[C@H]1C(=O)Nc2ccccc2N1C(=O)c1ccc(NCc2ccccc2)nc1 [Compound 36, (S)-4-(6-(benzylamino)nicotinoyl)-3-propyl-3,4-dihydroquinoxalin-2(1H)-one]  0.65 µM
27. CCC[C@H]1C(=O)Nc2ccccc2N1C(=O)c1ccc(N(C)C2CC2)nc1 [Compound 37, (S)-4-(6-(cyclopropyl(methyl)amino)nicotinoyl)-3-propyl-3,4-dihydroquinoxalin-2(1H)-one]  0.58 µM
28. CCC[C@H]1C(=O)Nc2ccccc2N1C(=O)c1cnc2[nH]ccc2c1 [Compound 26, (S)-3-propyl-4-(1H-pyrrolo[2,3-b]pyridine-5-carbonyl)-3,4-dihydroquinoxalin-2(1H)-one]  0.56 µM
29. CCCC1C(=O)Nc2ccccc2N1C(=O)c1ccc(Cl)nc1 (stereo not shown) [Compound 1, 4-(6-chloronicotinoyl)-3-propyl-3,4-dihydroquinoxalin-2(1H)-one]  0.45 µM
30. CCC[C@H]1C(=O)Nc2ccccc2N1C(=O)c1cnn(CC)c1 [Compound 30, (S)-4-(1-ethyl-1H-pyrazole-4-carbonyl)-3-propyl-3,4-dihydroquinoxalin-2(1H)-one]  0.42 µM
31. CCC[C@H]1C(=O)Nc2ccccc2N1C(=O)c1cnn(CC2CC2)c1 [Compound 31, (S)-4-(1-(cyclopropylmethyl)-1H-pyrazole-4-carbonyl)-3-propyl-3,4-dihydroquinoxalin-2(1H)-one]  0.41 µM
32. CCC[C@H]1C(=O)Nc2ccccc2N1C(=O)c1ccc(OC(F)F)nc1 [Compound 24, (S)-4-(6-(difluoromethoxy)nicotinoyl)-3-propyl-3,4-dihydroquinoxalin-2(1H)-one]  0.4 µM
33. CCC[C@H]1C(=O)Nc2ccccc2N1C(=O)c1ccc(Cl)nc1 [Compound 5, (S)-4-(6-chloronicotinoyl)-3-propyl-3,4-dihydroquinoxalin-2(1H)-one]  0.38 µM
34. CCC[C@H]1C(=O)Nc2ccccc2N1C(=O)c1ccccc1 [Compound 10, (S)-4-benzoyl-3-propyl-3,4-dihydroquinoxalin-2(1H)-one]  0.33 µM
35. CCC[C@H]1C(=O)Nc2ccccc2N1C(=O)c1cccs1 [Compound 15, (S)-3-propyl-4-(thiophene-2-carbonyl)-3,4-dihydroquinoxalin-2(1H)-one]  0.17 µM
36. CCC[C@H]1C(=O)Nc2ccccc2N1C(=O)c1cccc(F)c1 [Compound 17, (S)-4-(3-fluorobenzoyl)-3-propyl-3,4-dihydroquinoxalin-2(1H)-one]  0.17 µM
37. CCC[C@H]1C(=O)Nc2ccccc2N1C(=O)c1ccc(F)c(F)c1 [Compound 21, (S)-4-(3,4-difluorobenzoyl)-3-propyl-3,4-dihydroquinoxalin-2(1H)-one]  0.07 µM

— patent publication US20250296916A1, “BICYCLIC PIPERAZINONES AND THERAPEUTIC USES THEREOF” (Cytokinetics, Inc., priority 2022, published 2025)
